According to ChEMBL document CHEMBL1124630, “Fluoronaphthyridines and quinolones as antibacterial agents. 1. Synthesis and structure-activity relationships of new 1-substituted derivatives” (J Med Chem, 1989):
Values after ≈ are worked out from the molar mass of the structure shown.

Experiments:
[1] = system: Morganella morganii; assay: In vitro antibacterial activity against Morganella morganii (A 15153); type: functional
[2] = system: Escherichia coli; assay: In vitro antibacterial activity against Escherichia coli (A 15119); type: functional
[3] = system: Enterobacter cloacae; assay: In vitro antibacterial activity against Enterobacter cloacae (A 9656); type: functional
[4] = system: Klebsiella pneumoniae; assay: In vitro antibacterial activity against Klebsiella pneumoniae (A 9664); type: functional
[5] = system: Pseudomonas aeruginosa; assay: In vitro antibacterial activity against Pseudomonas aeruginosa (A 9843); type: functional
[6] = system: Staphylococcus aureus; assay: In vitro antibacterial activity against Staphylococcus aureus Smith (A9537); type: functional
[7] = Urinary recovery after 24 hr in plasma after oral administration in dog (25 mg/kg); type: ADME, organism-based, Canis lupus familiaris; settings: urine, read-out: UR
[8] = Half-life in plasma after oral administration in dog (25 mg/kg); type: ADME, organism-based, Canis lupus familiaris
[9] = Lethal dose of compound in OF1-strain female swiss mice after oral administration; type: toxicity, organism-based; settings: mouse, in vivo
[10] = system: Pseudomonas aeruginosa; assay: In vivo efficacy in systemic infection due to Pseudomonas aeruginosa (A 9843) in mice; type: functional; settings: read-out: PD50
[11] = Maximum concentration in plasma after oral administration in dog (25 mg/kg); type: ADME, organism-based, Canis lupus familiaris; parameters: dose 25 mg/kg, route oral
[12] = system: Canis familiaris; assay: Area under the concentration/ time in plasma after oral administration in dog (25 mg/kg); type: ADME, organism-based, Canis lupus familiaris; settings: in vivo
[13] = system: Staphylococcus aureus; assay: In vivo efficacy in systemic infection due to Staphylococcus aureus Smith (A 9537) in mice; type: functional; settings: read-out: PD50
[14] = system: Klebsiella pneumoniae; assay: In vivo efficacy in systemic infection due to Klebsiella pneumoniae (A 9664) in mice; type: functional; settings: read-out: PD50
[15] = system: Escherichia coli; assay: In vivo efficacy in systemic infection due to Escherichia coli (A 15119) in mice; type: functional; settings: read-out: PD50
[16] = Morganella morganii, read-out: MIC
[17] = Escherichia coli, read-out: MIC
[18] = Enterobacter cloacae, read-out: MIC
[19] = Klebsiella pneumoniae, read-out: MIC
[20] = Pseudomonas aeruginosa, read-out: MIC
[21] = Staphylococcus aureus, read-out: MIC

Row | SMILES | MIC [1, 16] [µg/mL] | MIC [2, 17] [µg/mL] | MIC [3, 18] [µg/mL] | MIC [4, 19] [µg/mL] | MIC [5, 20] [µg/mL] | MIC [6, 21] [µg/mL] | further results
1 | O=C(O)c1cn(CC2CC2)c2cc(N3CCNCC3)c(F)cc2c1=O | 1 (≈ 2.9 µM) | 0.5 (≈ 1.45 µM) | 4 (≈ 11.6 µM) | 2 (≈ 5.79 µM) | 4 (≈ 11.6 µM) | 1 (≈ 2.9 µM) | 
2 | O=C(O)c1cn(-c2ccc(F)cc2)c2nc(N3CCNCC3)c(F)cc2c1=O |  | 0.05 (≈ 0.129 µM) |  | 0.1 (≈ 0.259 µM) | 0.39 (≈ 1.01 µM) | 0.39 (≈ 1.01 µM) | 
3 | O=C(O)c1cn(C2CC=CC2)c2cc(N3CCNCC3)c(F)cc2c1=O | 8 (≈ 22.4 µM) | 1 (≈ 2.8 µM) | 8 (≈ 22.4 µM) | 1 (≈ 2.8 µM) | 8 (≈ 22.4 µM) | 2 (≈ 5.6 µM) | 
4 | CC(C)(C)n1cc(C(=O)O)c(=O)c2cc(F)c(N3CCNCC3)cc21 | 0.25 (≈ 0.72 µM) | 0.06 (≈ 0.173 µM) | 0.13 (≈ 0.374 µM) | 0.13 (≈ 0.374 µM) | 0.5 (≈ 1.44 µM) | 0.06 (≈ 0.173 µM) | dose excreted at 24 h [7]: 17%; half-life [8]: 4.4 h; LD50 [9]: > 2500 mg/kg; ED50 [10]: 18 mg/kg; Cmax [11]: 6400 ng/mL; AUC [12]: 50 µg/mL; ED50 [13]: 8 mg/kg
5 | CC(C)(C)n1cc(C(=O)O)c(=O)c2cc(F)c(N3CCNCC3)c(F)c21 | 0.5 (≈ 1.37 µM) | 0.06 (≈ 0.164 µM) | 0.25 (≈ 0.684 µM) | 0.25 (≈ 0.684 µM) | 4 (≈ 10.9 µM) | 0.25 (≈ 0.684 µM) | 
6 | O=C(O)c1cn(C23CC4CC(CC(C4)C2)C3)c2cc(N3CCNCC3)c(F)cc2c1=O | 32 (≈ 75.2 µM) | 2 (≈ 4.7 µM) | 4 (≈ 9.4 µM) | 8 (≈ 18.8 µM) | 63 (≈ 148 µM) | 8 (≈ 18.8 µM) | 
7 | CCn1cc(C(=O)O)c(=O)c2cc(F)c(N3CCNCC3)nc21 [ENOXACIN] | 0.13 (≈ 0.406 µM) | 0.13 (≈ 0.406 µM) | 0.5 (≈ 1.56 µM) | 0.5 (≈ 1.56 µM) | 0.5 (≈ 1.56 µM) | 0.25 (≈ 0.78 µM) | 
8 | C=C(C)n1cc(C(=O)O)c(=O)c2cc(F)c(N3CCNCC3)nc21 | 0.5 (≈ 1.5 µM) | 0.13 (≈ 0.391 µM) | 0.25 (≈ 0.752 µM) | 0.13 (≈ 0.391 µM) | 2 (≈ 6.02 µM) | 0.5 (≈ 1.5 µM) | ED50 [10]: 20 mg/kg; ED50 [13]: 15 mg/kg
9 | CC1(n2cc(C(=O)O)c(=O)c3cc(F)c(N4CCNCC4)cc32)CCC1 | 0.5 (≈ 1.39 µM) | 0.25 (≈ 0.696 µM) | 1 (≈ 2.78 µM) | 2 (≈ 5.56 µM) | 8 (≈ 22.3 µM) | 0.5 (≈ 1.39 µM) | 
10 | CC1CC1n1cc(C(=O)O)c(=O)c2cc(F)c(N3CCNCC3)cc21 (stereo in doubt; 13) |  |  |  | 1 (≈ 2.9 µM) | 1 (≈ 2.9 µM) |  | MIC [1]: 0.25 µg/mL (≈ 0.724 µM); MIC [2]: 0.13 µg/mL (≈ 0.376 µM); MIC [3]: 0.5 µg/mL (≈ 1.45 µM); MIC [6]: 0.13 µg/mL (≈ 0.376 µM)
11 | CCn1cc(C(=O)O)c(=O)c2cc(F)c(N3CCNCC3)cc21 [NORFLOXACIN] | 0.015 (≈ 0.047 µM) | 0.13 (≈ 0.407 µM) | 0.06 (≈ 0.188 µM) | 0.03 (≈ 0.0939 µM) | 0.5 (≈ 1.57 µM) | 0.25 (≈ 0.783 µM) | ED50 [14]: 8 mg/kg; LD50 [9]: > 2500 mg/kg; ED50 [10]: 16 mg/kg; ED50 [15]: 3 mg/kg; ED50 [13]: 10 mg/kg
12 | CC1CC1n1cc(C(=O)O)c(=O)c2cc(F)c(N3CCNCC3)cc21 (stereo in doubt; 12) |  |  |  |  |  |  | MIC [1]: 1 µg/mL (≈ 2.9 µM); MIC [2]: 0.06 µg/mL (≈ 0.174 µM); MIC [3]: 0.13 µg/mL (≈ 0.376 µM); MIC [4]: 2 µg/mL (≈ 5.79 µM); MIC [5]: 2 µg/mL (≈ 5.79 µM); MIC [6]: 1 µg/mL (≈ 2.9 µM)
13 | O=C(O)c1cn(Cc2ccccc2)c2cc(N3CCNCC3)c(F)cc2c1=O | 4 (≈ 10.5 µM) | 0.25 (≈ 0.655 µM) | 0.5 (≈ 1.31 µM) | 0.5 (≈ 1.31 µM) | 0.5 (≈ 1.31 µM) | 0.5 (≈ 1.31 µM) | 
14 | CC1CCC1n1cc(C(=O)O)c(=O)c2cc(F)c(N3CCNCC3)cc21 (stereo unspecified) | 16 (≈ 44.5 µM) | 2 (≈ 5.56 µM) | 32 (≈ 89 µM) | 4 (≈ 11.1 µM) | 32 (≈ 89 µM) | 4 (≈ 11.1 µM) | 
